Source: US20030124160A1, “Targeted drug delivery” (priority 2001, published 2003)

Tests used:
tyrosinase [1] = settings: B16 mouse melanoma cells, 0.5 mM-5 mM free NB-DNJ (ref. [6]); cited from earlier work
tyrosinase [2] = test: Tyrosinase activity (DOPA oxidase assay) in lysates of B16-F1 cells cultured with free or liposome-included inhibitor; type: cell-based, mouse; settings: 24 h after washout following 72 h incubation
Protocol: B16-F1 mouse melanoma cells (European Collection of Animal Cell Culture, Porton Down, U.K.) were cultured in RPMI 1640 medium (Life Technologies, Paisley, Scotland, and U.K.) as described in ref. [8]. Cells were incubated with liposomes for 72 h at 37° C. and their viability was determined by using the trypan blue staining test. Following the incubation time, cells were harvested, washed three times with PBS and lysed in 10 mM phosphate buffer, pH 6.8 containing 1% Nonidet P40 and proteinase inhibitors.
Tyrosinase activity was measured by the DOPA oxidase assay that measures the conversion of DOPA to DOPAchrome via DOPA quinone. Briefly, 50 μl of cell lysate was mixed with 950 μl of 1 mM DOPA in 0.1 M sodium phosphate buffer, pH 7.2 at 37° C. and the reaction was followed spectrophotometrically at 475 nm by the chromogenic appearance of DOPAchroine from 1 mM DOPA (ref. [8]).
To investigate the uptake of liposome encapsulated NB-DNJ in living cells,.the activity of tyrosinase was monitored, a constitutively expressed enzyme of melanoma cells, highly sensitive to small variations of the NB-DNJ concentration in the culture medium (ref. [8]). Inhibition of N-glycosylation processing in the presence of NB-DNJ yields a tyrosinase polypeptide caring Glc3Man7-9GlcNAc glycans. […]

[3] = test system: B16-F1 mouse melanoma cells; test: Pigmentation of melanoma cells, visual inspection; type: cell-based; settings: 0.5 mM free NB-DNJ, 72 h
Protocol: Cells were treated with for 72 h in the presence and absence of NB-DNJ free or included in liposomes, transferred into a microtiter plate and pelleted by centrifugation.
Tyrosinase is the regulatory enzyme of melanogenesis in melanocytes. Therefore, inactivation of tyrosinase is associated with lack of pigmentation due to the absence of melanin synthesis in specialized cells. To correlate the results on tyrosinase activity, with the melanin content, the pigmentation of the melanoma cells treated With liposomes was observed. […] The lack of pigmentation in melanoma cells treated with minute amounts of liposomal NB-DNJ correlates well with the abolishment of tyrosinase activity as a result of N-glycosylation processing inhibition, reinforcing the efficiency of the cytoplasmic delivery of the drug encapsulated in liposomes.

## CCCCN1C[C@H](O)[C@@H](O)[C@H](O)[C@H]1CO [NB-DNJ, N-butyldeoxynojirimycin]
Tyrosinase [1]
  tyrosinase activity: dramatic decrease
Tyrosinase [2]
  recovery of tyrosinase activity: 75%
[3]
  pigmentation: dramatic decrease
